From patent publication US20230210853A1 (Halia Therapeutics, Inc., priority 2020, published 2023)
Where two headings read alike, the source gives them in different places.

What was measured:
[1] = biological target: T1, full-length recombinant human NEK7 (Homo sapiens, UniProt Q8TDX7); assay: NEK7 enzymatic assay ([33P]-ATP, casein substrate); type: biochemical; settings: recombinant human NEK7, casein substrate
T1 construct: full-length recombinant human NEK7; GST (N); purchased SignalChem N09-10G; host or cells: Sf9 insect cells (baculovirus)
T1 sequence (Q8TDX7 whole entry): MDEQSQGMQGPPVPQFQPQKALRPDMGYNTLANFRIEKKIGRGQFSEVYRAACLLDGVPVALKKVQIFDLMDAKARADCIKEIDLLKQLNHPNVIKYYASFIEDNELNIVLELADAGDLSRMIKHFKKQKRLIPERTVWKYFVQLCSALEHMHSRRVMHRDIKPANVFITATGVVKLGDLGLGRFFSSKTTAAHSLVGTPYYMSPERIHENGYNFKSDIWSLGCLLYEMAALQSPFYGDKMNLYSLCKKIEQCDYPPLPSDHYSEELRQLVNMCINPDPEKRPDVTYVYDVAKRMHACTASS
Outline: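 GST-tagged enzyme, baculovirus-expressed in Sf9 cells, was mixed with casein in 20 mM Hepes pH 7.5, 10 mM MgCl2, 1 mM EGTA, 0.02% Brij35, 2 mM DTT, 1% DMSO. Compounds (3-fold series, 10 μM–0.5 nM) were preincubated 20 min at RT, then [33P]-ATP was added for 2 h at RT. P81 filter-bound radioactivity was expressed as % of vehicle activity and fitted to IC50.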

IL-1β release = IL-1β release assay (PMA-differentiated THP-1 cells, LPS + nigericin, cleaved IL-1β by JESS); type: cell-based; settings: Homo sapiens, THP-1 cells, LPS + nigericin, read-out: IL-1β release IC50
Experimental: (§1) Approximately 1.5 million THP-1 cells were plated in each well of a 6-well TC plate and incubated with 40 nM PMA in RPMI (10% FBS, 1% Penstrep) for 24 hours. The media was then removed and cells were rested in RPMI (10% FBS, 1% Penstrep) for 24 hours after which time the media was removed and cells were pre-treated for 2 hours with various concentrations of compounds of interest (typically serial 3-fold dilution in RPMI +5% FBS, concentrations ranging from 1 μM to 0.5 nM) in RPMI (5% FBS). The media was again removed and cells were incubated with 250 ng/mL LPS and compounds of interest (concentrations as above) in RMPI (5% FBS) for 2 hours. The media was removed for a last time and cells were incubated with 20 μM nigericin and compounds of interest (concentrations as above) in Opti-MEM for 30 minutes. Cell media was then collected and the amount of cleaved IL-1β was determined using a JESS instrument (Protein Simple) and standard protocols. Cleaved 1-PD antibody was obtained from Cell Signaling (catalogue #83186S) and was used at 1:20 dilution in antibody diluent 2. Protein Simple 1× anti-Rabbit HRP secondary antibody was used along with Protein Simple luminol and peroxide for chemiluminescent detection. Primary antibody incubation time was increased from 30 minutes to 60 minutes.
as §1, with “RPMI+5%” for “RPMI +5%”, “Il-1β” for “1-PD”

Row | Compound | IC50 ([1]; Table 2d) | IC50 (IL-1β release; 48 h, Table 2d) | IC50 ([1]; Table 2e) | IC50 (IL-1β release; Table 2e)
1 | CN1CCN(Cc2ccc(NC(=O)Nc3ccc(-c4nn(C5CC5)c5ncnc(N)c45)cc3F)cc2F)CC1 [Id-27, 1-(4-(4-amino-1-cyclopropyl-1H-pyrazolo[3,4-d]pyrimidin-3-yl)-2-fluorophenyl)-3-(3-fluoro-4-((4-methylpiperazin-1-yl)methyl)phenyl)urea] | < 150 nM | < 150 nM |  | 
2 | CN1CCN(Cc2ccc(NC(=O)Nc3ccc(-c4nn(CC(C)(C)O)c5ncnc(N)c45)cc3F)cc2C(F)(F)F)CC1 [Id-28, 1-(4-(4-amino-1-(2-hydroxy-2-methylpropyl)-1H-pyrazolo[3,4-d]pyrimidin-3-yl)-2-fluorophenyl)-3-(4-((4-methylpiperazin-1-yl)methyl)-3-(trifluoromethyl)phenyl)urea] | < 150 nM | < 150 nM |  | 
3 | CN1CCN(Cc2ccc(NC(=O)Nc3ccc(-c4nn(C5CC5)c5ccnc(N)c45)cc3F)cc2C(F)(F)F)CC1 [Id-30, 1-(4-(4-amino-1-cyclopropyl-1H-pyrazolo[4,3-c]pyridin-3-yl)-2-fluorophenyl)-3-(4-((4-methylpiperazin-1-yl)methyl)-3-(trifluoromethyl)phenyl)urea] | < 150 nM | < 150 nM |  | 
4 | Nc1ncnc2c1c(-c1ccc(NC(=O)Nc3ccc(CN4CCOCC4)c(C(F)(F)F)c3)c(F)c1)cn2C1CC1 [Id-31, 1-(4-(4-amino-7-cyclopropyl-7H-pyrrolo[2,3-d]pyrimidin-5-yl)-2-fluorophenyl)-3-(4-(morpholinomethyl)-3-(trifluoromethyl)phenyl)urea] | 501 to 1500 nM | 301 to 500 nM |  | 
5 | CN1CCN(Cc2ccc(NC(=O)Nc3ccc(-c4cn(C5CC5)c5ncnc(N)c45)cc3F)cc2C(F)(F)F)CC1 [Id-33, 1-(4-(4-amino-7-cyclopropyl-7H-pyrrolo[2,3-d]pyrimidin-5-yl)-2-fluorophenyl)-3-(4-((4-methylpiperazin-1-yl)methyl)-3-(trifluoromethyl)phenyl)urea] | < 150 nM | < 150 nM |  | 
6 | CN1CCN(C(=O)c2ccc(NC(=O)Nc3ccc(-c4nn(C5CC5)c5ncnc(N)c45)cc3F)cc2C(F)(F)F)CC1 [Id-48] | 151 to 300 nM | > 1000 nM |  | 
7 | CCN1CCN(Cc2ccc(NC(=O)Nc3ccc(-c4nn(C5CC5)c5ncnc(N)c45)cc3F)cc2C(F)(F)F)CC1 [Id-49] | < 150 nM | < 150 nM |  | 
8 | CN1CCN(Cc2ccc(NC(=O)Nc3ccc(Oc4ccnc5[nH]cc(Cl)c45)cc3F)cc2C(F)(F)F)CC1 [Ie-1, 1-(4-((3-chloro-1H-pyrrolo[2,3-b]pyridin-4-yl)oxy)-2-fluorophenyl)-3-(4-((4-methylpiperazin-1-yl)methyl)-3-(trifluoromethyl)phenyl)urea] |  |  | 151 to 300 nM | < 150 nM
9 | CCN1CCN(Cc2ccc(NC(=O)Nc3ccc(Oc4ccnc5[nH]cc(Cl)c45)cc3F)cc2C(F)(F)F)CC1 [Ie-9, 1-(4-((3-chloro-1H-pyrrolo[2,3-b]pyridin-4-yl)oxy)-2-fluorophenyl)-3-(4-((4-ethylpiperazin-1-yl)methyl)-3-(trifluoromethyl)phenyl)urea] |  |  | 501 to 1500 nM | < 150 nM
10 | CN1CCC(Oc2ccc(NC(=O)Nc3ccc(Oc4ccnc5[nH]cc(Cl)c45)cc3F)cc2C(F)(F)F)CC1 [Ie-16, 1-(4-((3-chloro-1H-pyrrolo[2,3-b]pyridin-4-yl)oxy)-2-fluorophenyl)-3-(4-((1-methylpiperidin-4-yl)oxy)-3-(trifluoromethyl)phenyl)urea] |  |  | 151 to 300 nM | < 150 nM
11 | CN1CCC(=Cc2ccc(NC(=O)Nc3ccc(Oc4ccnc5[nH]cc(Cl)c45)cc3F)cc2C(F)(F)F)CC1 [Ie-20, 1-(4-((3-chloro-1-pyrrolo[2,3-b]pyridin-4-yl)oxy)-2-fluorophenyl)-3-(4-((1-methylpiperidin-4-ylidene)methyl)-3-(trifluoromethyl)phenyl)urea] |  |  | 301 to 500 nM | < 150 nM
12 | CN1CCN(Cc2ccc(NC(=O)Nc3ccc(Oc4ccnc5[nH]cc(C6CC6)c45)cc3F)cc2C(F)(F)F)CC1 [Ie-26, 1-(4-((3-cyclopropyl-1H-pyrrolo[2,3-b]pyridin-4-yl)oxy)-2-fluorophenyl)-3-(4-((4-methylpiperazin-1-yl)methyl)-3-(trifluoromethyl)phenyl)urea] |  |  | 501 to 1500 nM | < 150 nM
13 | Cc1[nH]c2nccc(Oc3ccc(NC(=O)Nc4ccc(CN5CCN(C)CC5)c(C(F)(F)F)c4)c(F)c3)c2c1Cl [Ie-27, 1-(4-((3-chloro-2-methyl-1H-pyrrolo[2,3-b]pyridin-4-yl)oxy)-2-fluorophenyl)-3-(4-((4-methylpiperazin-1-yl)methyl)-3-(trifluoromethyl)phenyl)urea] |  |  | 301 to 500 nM | < 150 nM
14 | Cc1c[nH]c2nccc(Oc3ccc(NC(=O)Nc4ccc(CN5CCN(C)CC5)c(C(F)(F)F)c4)c(F)c3)c12 [Ie-28, 1-(2-fluoro-4-((3-methyl-1H-pyrrolo[2,3-b]pyridin-4-yl)oxy)phenyl)-3-(4-((4-methylpiperazin-1-yl)methyl)-3-(trifluoromethyl)phenyl)urea] |  |  | 151 to 300 nM | 151 to 300 nM
